Test results published in US11999739B2, “Antimicrobials methods of making and using the same” (BIOVERSYS AG, priority 2016, dated 2024).

Legend:
[1] = test system: Staphylococcus aureus (S. aureus) 11540 strain; assay: Standard microdilution MIC assay, S. aureus; type: cell-based
Method in brief: (§1)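 MICs obtained by CLSI-standard microdilution, quality-controlled with reference strains in parallel. Values reported as + or − relative to a 16 micrograms/mL cutoff.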

[2] = test system: Escherichia coli strain ATCC25922; assay: Standard microdilution MIC assay, E. coli; type: cell-based
Method in brief: as §1

SMILES	MIC [1]	MIC [2]
CC(=N)NCC[C@@H]1CSC[C@@H](c2ccc(-n3cc4cc(-c5cc(CCC[C@@H](N)C6CC6)cc(Cl)c5F)[nH]c4nc3=O)cc2)N1 [Compound 269]	≤ 16 mg/L	≤ 16 mg/L
CC(=N)NCC[C@@H]1CCC[C@@H](c2ccc(-n3cc4cc(-c5cc(CCC[C@H](C)N)cc(Cl)c5F)[nH]c4nc3=O)cc2)N1Cc1c(C)ncn1C [Compound 288]	≤ 16 mg/L	≤ 16 mg/L
CC(=N)NCC[C@@H]1CCC[C@@H](c2ccc(-n3cc4cc(-c5cc(CCC[C@@H](N)C6CC6)cc(Cl)c5F)[nH]c4nc3=O)cc2F)N1 [Compound 167]	≤ 16 mg/L	≤ 16 mg/L
C=C[C@H](N)CCCc1cc(Cl)c(F)c(-c2cc3cn(-c4ccc([C@@H]5CCC[C@@H](CCNC(C)=N)N5CCCF)c(SC)c4)c(=O)nc3[nH]2)c1 [Compound 344]	≤ 16 mg/L	≤ 16 mg/L
CC(=N)NCC[C@@H]1CCC[C@@H](c2ccc(-n3cc4cc(-c5cc(CCC[C@@H](N)C6CC6)cc(OC(F)(F)F)c5F)[nH]c4nc3=O)cc2OC(F)(F)F)N1 [Compound 213]	≤ 16 mg/L	≤ 16 mg/L
CC(=N)NCC[C@@H]1CCC[C@@H](c2ccc(-n3cc4cc(-c5cc(CCC[C@H](C)N)cc(C(F)(F)F)c5)[nH]c4nc3=O)cc2)N1 [Compound 172]	≤ 16 mg/L	≤ 16 mg/L
C=C[C@H](NCCCNC(C)=N)c1ccc(-n2cc3cc(-c4cc(CCC[C@@H](N)C5CC5)cc(Cl)c4F)[nH]c3nc2=O)cc1 [Compound 266]	≤ 16 mg/L	≤ 16 mg/L
CC(=N)NCCCN[C@H](c1ccc(-n2cc3cc(-c4cc(CCC[C@H](C)N)cc(Cl)c4F)[nH]c3nc2=O)cc1)C(F)F [Compound 159]	≤ 16 mg/L	≤ 16 mg/L
CSc1cc(-n2cc3cc(-c4cc(CCC[C@@H](N)CF)cc(Cl)c4F)[nH]c3nc2=O)ccc1[C@@H]1CCC[C@@H](CCNC(C)=N)N1 [Compound 126]	≤ 16 mg/L	≤ 16 mg/L
C=C[C@H](N)CCCc1cc(-c2cc3cn(-c4ccc([C@@H]5CCC[C@@H](CCNC(C)=N)N5CCCF)c(F)c4)c(=O)nc3[nH]2)cc(C(F)(F)F)c1 [Compound 349]	≤ 16 mg/L	≤ 16 mg/L
CC(=N)NCC[C@H](CO)NCc1ccc(-n2cc3cc(-c4cc(CCC[C@@H](N)CO)cc(Cl)c4F)[nH]c3nc2=O)cc1 [Compound 35]	≤ 16 mg/L	≤ 16 mg/L
CC(=N)NCC[C@@H]1COC[C@@H](c2ccc(-n3cc4cc(-c5cc(CCC[C@@H](N)C(F)(F)F)cc(Cl)c5F)[nH]c4nc3=O)cc2)N1 [Compound 66]	> 16 mg/L	> 16 mg/L
COC[C@H](N)CCCc1cc(-c2cc3cn(-c4ccc([C@@H]5CCC[C@@H](C[C@@H](C)NC(C)=N)N5)cc4)c(=O)nc3[nH]2)c(F)c(C(F)(F)F)c1 [Compound 339]	≤ 16 mg/L	≤ 16 mg/L
CC(C)(CN)CCc1cc(Cl)c(F)c(-c2cc3cn(-c4ccc(CNCCCNC(=N)CF)c(F)c4)c(=O)nc3[nH]2)c1 [Compound 74]	≤ 16 mg/L	≤ 16 mg/L
CC(=N)NCCCN[C@H](c1ccc(-n2cc3cc(-c4cc(CCC[C@H](C)N)cc(Cl)c4F)[nH]c3nc2=O)cc1)C(F)(F)F [Compound 130]	≤ 16 mg/L	≤ 16 mg/L
C=C[C@@H](CCNC(C)=N)NC(=O)c1ccc(-n2cc3cc(-c4cc(CCC[C@H](C)N)cc(Cl)c4F)[nH]c3nc2=O)cc1 [Compound 60]	≤ 16 mg/L	≤ 16 mg/L
CC(=N)NCC[C@@H]1CCC[C@@H](c2ccc(-n3cc4cc(-c5cc(CCCC(C)(C)N)cc(Cl)c5F)[nH]c4nc3=O)cc2)N1 [Compound 7]	≤ 16 mg/L	≤ 16 mg/L
C=C[C@H](N)CCCc1cc(Cl)c(F)c(-c2cc3cn(-c4ccc([C@H](C)N[C@@H](CO)CCNC(C)=N)c(F)c4)c(=O)nc3[nH]2)c1 [Compound 174]	≤ 16 mg/L	≤ 16 mg/L

SMILES	MIC [1]	MIC [2]
CC(=N)NCC[C@@H]1CCC[C@@H](c2ccc(-n3cc4cc(-c5cc(CCC[C@H](C)N)cc(Cl)c5F)[nH]c4nc3=O)cc2)N1C [Compound 109]	≤ 16 mg/L	≤ 16 mg/L
CSCC(=N)NCC[C@H](CO)NCc1ccc(-n2cc3cc(-c4cc(CCC[C@H](C)N)cc(Cl)c4F)[nH]c3nc2=O)cc1 [Compound 41]	≤ 16 mg/L	≤ 16 mg/L
C[C@H](N)CCCc1cc(Cl)c(F)c(-c2cc3cn(-c4ccc([C@@H]5CNC[C@@H](CCNC(=N)CF)N5)cc4)c(=O)nc3[nH]2)c1 [Compound 51]	≤ 16 mg/L	≤ 16 mg/L
CC(=N)NCC[C@@H]1CCC[C@@H](c2ccc(-n3cc4cc(-c5cc(CCC[C@@H](N)C6CC6)cc(Cl)c5F)[nH]c4nc3=O)cn2)N1 [Compound 248]	≤ 16 mg/L	≤ 16 mg/L
CC(=N)NCC[C@@H]1CCC[C@@H](c2ccc(-n3cc4cc(-c5cc(CCC[C@@H](N)C6CC6)cc(C(F)(F)F)c5F)[nH]c4nc3=O)cc2)N1 [Compound 212]	≤ 16 mg/L	≤ 16 mg/L
CC(=N)NCC[C@@H]1CCC[C@@H](c2ccc(-n3cc4cc(-c5cc(CCC[C@H](C)N)cc(Cl)c5F)[nH]c4nc3=O)cc2Cl)N1 [Compound 175]	≤ 16 mg/L	≤ 16 mg/L
C=C[C@H](N)CCCc1cc(Cl)c(F)c(-c2cc3cn(-c4ccc(CN[C@H](CCNC(C)=N)C5CC5)cc4)c(=O)nc3[nH]2)c1 [Compound 220]	≤ 16 mg/L	≤ 16 mg/L
C=C[C@@H](N)CCCc1cc(Cl)c(F)c(-c2cc3cn(-c4ccc([C@@H]5COC[C@@H](CCNC(=N)CF)N5)cc4)c(=O)nc3[nH]2)c1 [Compound 57]	≤ 16 mg/L	≤ 16 mg/L
C=C[C@H](NCCCNC(C)=N)c1ccc(-n2cc3cc(-c4cc(CCC[C@@H](N)CF)cc(Cl)c4F)[nH]c3nc2=O)cc1 [Compound 179]	≤ 16 mg/L	≤ 16 mg/L
CCCC(=N)NCC[C@@H]1CCC[C@@H](c2ccc(-n3cc4cc(-c5cc(CCC[C@H](C)N)cc(Cl)c5F)[nH]c4nc3=O)cc2)N1 [Compound 352]	≤ 16 mg/L	≤ 16 mg/L
CC(=N)NCC[C@@H]1CCC[C@@H](c2ccc(-n3cc4cc(-c5cc(CCC[C@@H](N)CF)cc(Cl)c5F)[nH]c4nc3=O)cc2Cl)N1 [Compound 176]	≤ 16 mg/L	≤ 16 mg/L
CC(=N)NCC[C@@H]1CCC[C@@H](c2ccc(-n3cc4cc(-c5cc(CCC[C@H](N)C(F)F)cc(Cl)c5F)[nH]c4nc3=O)cc2)N1 [Compound 141]	≤ 16 mg/L	≤ 16 mg/L
CC(=N)NCC[C@H](CO)N[C@@H](C)c1ccc(-n2cc3cc(-c4cc(CCC[C@H](C)N)cc(Cl)c4F)[nH]c3nc2=O)cc1 [Compound 96]	≤ 16 mg/L	≤ 16 mg/L
C=CC(CCNC(=N)CCOCC)NCc1ccc(-n2cc3cc(-c4cc(CCC[C@H](C)N)cc(Cl)c4F)[nH]c3nc2=O)cc1 (stereo partly shown) [Compound 10]	≤ 16 mg/L	≤ 16 mg/L
CC(=N)NCC[C@@H]1CCC[C@@H](c2ccc(-n3cc4cc(-c5cc(CCCC6(N)CC6)cc(Cl)c5F)[nH]c4nc3=O)cc2F)N1 [Compound 169]	≤ 16 mg/L	≤ 16 mg/L
C=C[C@H](N)CCCc1cc(Cl)c(F)c(-c2cc3cn(-c4ccc([C@@H]5CCC[C@@H](CCNC(C)=N)N5CCCF)cc4)c(=O)nc3[nH]2)c1 [Compound 343]	≤ 16 mg/L	≤ 16 mg/L
C=C[C@@H](N)CCCc1cc(Cl)c(F)c(-c2cc3cn(-c4ccc([C@@H]5CCC[C@@H](C[C@@H](C)NC(C)=N)N5)cc4)c(=O)nc3[nH]2)c1 [Compound 340]	≤ 16 mg/L	≤ 16 mg/L
